According to patent publication US10398144B2, “N-,C-disubstituted azoles and compositions and methods for controlling nematode pests” (Monsanto Technology LLC, priority 2013, dated 2019):
Marks after values point to notes of the source that are not given here.

What was measured:
[1] = tested on: Meloidogyne incognita nematodes; assay: Miniaturized greenhouse nematicidal efficacy assay (cucumber root gall rating); settings: average of triplicate gall ratings
Protocol: A miniaturized greenhouse assay was conducted to study the effects of several N-,C-disubstituted azole analogs on Meloidogyne incognita nematodes.
Cucumber seeds were sprouted for 3 days in moist paper towels. Acceptable sprouts were 3 to 4 cm long, with several lateral roots just emerging.
Each test solution was evaluated in triplicate. Dry sand (10 mL) was added to each vial. Seedlings were planted by tilting the vial and laying the seedling in the correct orientation so that the cotyledons were just above the sand, and then tilting back to cover the radicles with sand.
A sample of the test solution (3.3 mL) was then added to each vial, and the vials were placed in racks under fluorescent light banks. The vials were inoculated two days after planting by adding 500 vermiform M. incognita eggs to each vial in deionized or spring water (50 μL). The vials were then kept under the fluorescent lamps at ambient room temperature and watered as needed with deionized water (1 mL), usually twice during duration of test.
Harvest of the cucumber plants was performed 10 to 12 days after inoculation by washing sand off the roots. A root gall rating was assigned using the following Gall rating scale (Gall: % root mass galled): 0=0-5%; 1=6-20%; 2=21-50%; and 3=51-100%.

[2] = 1 ppm, cucumber seedlings in sand, 500 M. incognita eggs, harvest 10 to 12 days after inoculation, scale 0=0-5%, 1=6-20%, 2=21-50%, 3=51-100% root mass galled
[3] = 8 ppm, cucumber seedlings in sand, 500 M. incognita eggs, harvest 10 to 12 days after inoculation, scale 0=0-5%, 1=6-20%, 2=21-50%, 3=51-100% root mass galled
[4] = 40 ppm, cucumber seedlings in sand, 500 M. incognita eggs, harvest 10 to 12 days after inoculation, scale 0=0-5%, 1=6-20%, 2=21-50%, 3=51-100% root mass galled

Compound: c1ccc(-n2cc(-c3ccco3)nn2)cc1 [Formula Ia-i, 4-(furan-2-yl)-1-phenyl-1H-1,2,3-triazole]
- melting point: 118 to 120 °C

Compound: c1ccc(-n2ncc(-c3cccs3)n2)cc1 [Formula Id-i, 2-phenyl-4-(thiophen-2-yl)-2H-1,2,3-triazole]
- melting point: 78 °C

Compound: Fc1ccc(-c2cn(-c3cccs3)nn2)c(F)c1 [IIa-i, 4-(2,4-difluorophenyl)-1-(thiophen-2-yl)-1H-1,2,3-triazole]
- 40/8/1 ppm gall ratings [1, 2]: 1.67
- 40/8/1 ppm gall ratings [1, 3]: 0.00
- 40/8/1 ppm gall ratings [1, 4]: 0.00

Compound: c1ccc(-c2cn(-c3cccs3)nn2)cc1 [IIa-ii, 4-phenyl-1-(thiophen-2-yl)-1H-1,2,3-triazole]
- 40/8/1 ppm gall ratings [1, 2]: 1.67
- 40/8/1 ppm gall ratings [1, 3]: 0.00
- 40/8/1 ppm gall ratings [1, 4]: 0.00

Compound: c1ccc(-c2cn(-c3ccco3)nn2)cc1 [IIa-iii, 1-(furan-2-yl)-4-phenyl-1H-1,2,3-triazole]
- 40/8/1 ppm gall ratings [1, 2]: 2.00
- 40/8/1 ppm gall ratings [1, 3]: 1.33
- 40/8/1 ppm gall ratings [1, 4]: 0.00

Compound: Fc1ccc(-c2cn(-c3cccs3)nn2)cc1 [IIa-iv, 4-(4-fluorophenyl)-1-(thiophen-2-yl)-1H-1,2,3-triazole]
- 40/8/1 ppm gall ratings [1, 2]: 2.67
- 40/8/1 ppm gall ratings [1, 3]: 1.33
- 40/8/1 ppm gall ratings [1, 4]: 0.33

Compound: Clc1ccc(-c2cn(-c3ccco3)nn2)cc1 [IIa-v, 4-(4-chlorophenyl)-1-(furan-2-yl)-1H-1,2,3-triazole]
- 40/8/1 ppm gall ratings [1, 2]: 2.33
- 40/8/1 ppm gall ratings [1, 3]: 0.67
- 40/8/1 ppm gall ratings [1, 4]: 0.00

Compound: Clc1ccc(-c2cn(-c3cccs3)cn2)cc1 [IIc-i, 4-(4-chlorophenyl)-1-(thiophen-2-yl)-1H-imidazole]
- 40/8/1 ppm gall ratings [1, 2]: 1.67
- 40/8/1 ppm gall ratings [1, 3]: 1.33
- 40/8/1 ppm gall ratings [1, 4]: 0.00

Compound: c1ccc(-c2cn(-c3cccs3)cn2)cc1 [IIc-iii, 4-phenyl-1-(thiophen-2-yl)-1H-imidazole]
- 40/8/1 ppm gall ratings [1, 2]: 2.33
- 40/8/1 ppm gall ratings [1, 3]: 1.33
- 40/8/1 ppm gall ratings [1, 4]: 0.00

Compound: Clc1ccc(-c2cn(-c3ccco3)cn2)cc1 [IIc-iv, 4-(4-chlorophenyl)-1-(furan-2-yl)-1H-imidazole]
- 40/8/1 ppm gall ratings [1, 2]: 2.33
- 40/8/1 ppm gall ratings [1, 3]: 2.00
- 40/8/1 ppm gall ratings [1, 4]: 0.33

Compound: c1ccc(-n2cc(-c3ccco3)nn2)cc1 [Ia-i, 4-(furan-2-yl)-1-phenyl-1H-1,2,3-triazole]
- 40/8/1 ppm gall ratings [1, 2]: 2.67
- 40/8/1 ppm gall ratings [1, 3]: 1.33
- 40/8/1 ppm gall ratings [1, 4]: 0.00

Compound: Fc1ccc(-n2cc(-c3cccs3)nn2)c(F)c1 [Ia-ii, 1-(2,4-difluorophenyl)-4-(thiophen-2-yl)-1H-1,2,3-triazole]
- 40/8/1 ppm gall ratings [1, 2]: 3.00
- 40/8/1 ppm gall ratings [1, 3]: 2.33
- 40/8/1 ppm gall ratings [1, 4]: 0.00

Compound: Clc1ccc(-n2cc(-c3ccco3)nn2)cc1 [Ia-iiii, 1-(4-chlorophenyl)-4-(furan-2-yl)-1H-1,2,3-triazole]
- 40/8/1 ppm gall ratings [1, 2]: 2.67
- 40/8/1 ppm gall ratings [1, 3]: 1.00
- 40/8/1 ppm gall ratings [1, 4]: 0.00

Compound: Fc1ccc(-n2cc(-c3ccco3)nn2)cc1 [Ia-iv, 1-(4-fluorophenyl)-4-(furan-2-yl)-1H-1,2,3-triazole]
- 40/8/1 ppm gall ratings [1, 2]: 2.33
- 40/8/1 ppm gall ratings [1, 3]: 1.67
- 40/8/1 ppm gall ratings [1, 4]: 0.33

Compound: Fc1ccc(-n2cc(-c3ccco3)nn2)c(F)c1 [Ia-v, 1-(2,4-difluorophenyl)-4-(furan-2-yl)-1H-1,2,3-triazole]
- 40/8/1 ppm gall ratings [1, 2]: 2.33
- 40/8/1 ppm gall ratings [1, 3]: 0.67
- 40/8/1 ppm gall ratings [1, 4]: 0.00

Compound: c1ccc(-n2cc(-c3cccs3)cn2)cc1 [Ib-i, 1-phenyl-4-(thiophen-2-yl)-1H-pyrazole]
- 40/8/1 ppm gall ratings [1, 2]: 3.00
- 40/8/1 ppm gall ratings [1, 3]: 0.33
- 40/8/1 ppm gall ratings [1, 4]: 0.00

Compound: Clc1ccc(-n2cc(-c3cccs3)cn2)cc1 [Ib-ii, 1-(4-chlorophenyl)-4-(thiophen-2-yl)-1H-pyrazole]
- 40/8/1 ppm gall ratings [1, 2]: 2.33
- 40/8/1 ppm gall ratings [1, 3]: 0.67
- 40/8/1 ppm gall ratings [1, 4]: 0.00

Compound: c1ccc(-n2cc(-c3ccco3)cn2)cc1 [Ib-iii, 4-(furan-2-yl)-1-phenyl-1H-pyrazole]
- 40/8/1 ppm gall ratings [1, 2]: 2.67
- 40/8/1 ppm gall ratings [1, 3]: 1.67
- 40/8/1 ppm gall ratings [1, 4]: 0.00

Compound: Clc1ccc(-n2cnc(-c3ccco3)c2)cc1 [Ic-i, 1-(4-chlorophenyl)-4-(furan-2-yl)-1H-imidazole]
- 40/8/1 ppm gall ratings [1, 2]: 3.00
- 40/8/1 ppm gall ratings [1, 3]: 2.00
- 40/8/1 ppm gall ratings [1, 4]: 0.33

Compound: c1ccc(-n2ncc(-c3cccs3)n2)cc1 [Id-i, 2-phenyl-4-(thiophen-2-yl)-2H-1,2,3-triazole]
- 40/8/1 ppm gall ratings [1, 2]: 1.67
- 40/8/1 ppm gall ratings [1, 3]: 0.33
- 40/8/1 ppm gall ratings [1, 4]: 0.00

Compound: c1ccc(-n2ncc(-c3ccco3)n2)cc1 [Id-ii, 4-(furan-2-yl)-2-phenyl-2H-1,2,3-triazole]
- 40/8/1 ppm gall ratings [1, 2]: 2.33
- 40/8/1 ppm gall ratings [1, 3]: 1.00
- 40/8/1 ppm gall ratings [1, 4]: 0.00

Compound: Abamectin [reference compound]
- 40/8/1 ppm gall ratings ([1]; comparative compositions at 1 ppm, letters a-d mark separate tests, scale 0-3): 1.67^d
